Laboratory results as given in US12447161B2, “Topical pharmaceutical formulation” (RaDes GmbH, priority 2021, dated 2025).
“Also recorded” adds a separate entry of the source.

Assays:
[1] = cited from earlier work
[2] = Solubility of mometasone furoate in solvents of prior art formulations; format: physicochemical
Experimental: Dissolution studies were performed with mometasone furoate in both the oil phase and the aqueous phase of the DIPA-containing lotion formulations of Examples 3 and 9 of DE102006034883 to determine the solubility of mometasone furoate in mg/ml in said formulations. For this purpose, first, the liquid excipients of the oil phase and the aqueous phase were mixed in the correct relative amounts to form the respective solvent systems; the low amounts of solid excipients contained in the formulations were not considered. Based on the weight ratio between oil and water phase, the theoretical solubility of mometasone furoate in the complete formulation can then be estimated using the formula: [proportion of oil phase·solubility in oil phase]+[proportion of aqueous phase·solubility in aqueous phase] For instance, for Ex. 3 of DE102006034883, the oil phase (paraffinum liquidum) makes up about 20 wt. %, the remainder is the aqueous phase. […] For instance, for Ex. 9 of DE102006034883, the oil phase makes up 27.88 wt. %, the remainder is the aqueous phase.

[3] = Re-precipitation of mometasone furoate in solvent systems of Ex. 10 and 11 of DE102006034883; format: physicochemical; conditions: then 40.56 parts of water
Experimental: Similar to Example 7 above, dissolution behaviour of mometasone furoate was also tested for the DIPA-containing prior art cream formulations described in examples 10 and 11 of DE102006034883. For this purpose, mometasone furoate was dissolved in solvent systems based on Ex. 10 and 11 as follows:
Ex. 10: 0.1 parts mometasone furoate were dissolved in 1 part phenoxy ethanol and 10 parts hexylene glycol, resulting in a clear solution.
Ex. 11: 0.1 parts mometasone furoate were dissolved in 1 part phenoxy ethanol and 10 parts diethylene glycol monoethyl ether (Transcutol®), resulting in a clear solution.

SMILES: C[C@@H]1C[C@H]2[C@@H]3CCC4=CC(=O)C=C[C@]4(C)[C@@]3(Cl)[C@@H](O)C[C@]2(C)[C@@]1(OC(=O)c1ccco1)C(=O)CCl [mometasone furoate, 9α,21-dichloro-11β,17α-dihydroxy-16α-methylpregna-1,4-diene-3,20-dione 17-(2-furoate)]
- log P [1]: about 4
- water solubility [1]: about 0.95 μg/mL
- solubility in liquid paraffin [2]: about 0.05 mg/mL
- Solubility of mometasone furoate ([2]; Aqueous phase Ex. 3 of DE102006034883 (phenoxy ethanol, polysorbate 40, Transcutol, water)): 150 µg/mL
- Solubility of mometasone furoate ([2]; Aqueous phase Ex. 9 of DE102006034883 (phenoxy ethanol, Steareth 21, hexylene glycol, water)): 90 µg/mL
- Solubility of mometasone furoate ([2]; Oil phase Ex. 3 of DE102006034883 (liquid paraffin)): 50 µg/mL
- Solubility of mometasone furoate ([2]; Oil phase Ex. 9 of DE102006034883 (MCT, DIPA, liquid paraffin, Capryol 90)): 830 µg/mL
- overall theoretical solubility ([2]; complete formulation Ex. 3 of DE102006034883): about 0.13 mg/ml
- overall theoretical solubility ([2]; complete formulation Ex. 9 of DE102006034883): about 0.293 mg/ml
- behaviour on addition of aqueous phase ([3]; Ex. 10 solvent system: phenoxy ethanol, hexylene glycol): precipitation of mometasone furoate; also recorded: precipitated
- behaviour on addition of aqueous phase ([3]; Ex. 11 solvent system: phenoxy ethanol, Transcutol®): precipitation of mometasone furoate; also recorded: precipitated
